Experimental data published in patent US7807625B2, “Anti-wrinkle composition” (Grant Industries, Inc, priority 2006, dated 2010).

System: type I collagen, normal human dermal fibroblasts
Assay: Collagen assay: type I collagen by sandwich ELISA in fibroblast culture-conditioned medium
Type: cell-based
Settings: 4 days, LbGp 1.25 mg/ml and/or palmitoyl hexapeptide-6 0.20 mg/ml
Method: Normal human dermal fibroblasts (Cambrex, Walkersville, Md.) were seeded into a 96-well plate and grown to confluence. They were then challenged with several concentrations of the test samples for 4 days. The fibroblast culture-conditioned medium was harvested and tested for type I collagen by sandwich ELISA using affinity-purified antibodies. Magnesium ascorbyl phosphate (MAP) was tested along with the sample as a positive control.

## palmitoyl hexapeptide-6 [Hydrophobic peptide alone]
  Type I collagen Assay: 420
